Measurements reported in patent US5800838A, “Composition that inhibits or destroys at least one unicellular living organism containing fluorine F- and Lithium li+” (priority 1987, dated 1998).
Where two headings read alike, the source gives them in different places.

Test system: Pseudomonas aeruginosa
Experiment: MIC of antibiotics by microdilution in liquid medium on plates (Example 18)
Type: cell-based
Details: for MIC: Pseudomonas aeruginosa
Description: The unicellular living organism chosen for the trials is Pseudomonas aeruginosa (wild-type strain originating from hospital sources).
The same methodology as for Examples 11 and 12 was follows. Bacteriostatic analyses were performed with a number of antibiotics belonging to benzylpenicillins, and aminopenicillins, and first and second generation cephalosporins, namely:
The determination of the MIC was carried out by the microdilution method in liquid medium on plates. Aqueous solutions of each antibiotic are prepared in MUELLER HINION broth, to obtain dilutions in a geometric ratio of 2. The solvent is sterile double-distilled water.
The preparation of the bacterial inoculum is made with a culture of Pseudomonas aeruginosa, with agitation on a water bath at 37° C. for 4 to 6 hours, giving 10^6 bacteria/ml.
Three trials were performed per antibiotic and per bacterial inoculum. The trials were performed first with the antibiotics alone (trials a).sctn., and then with the addition of a dose of 1 mg/l of an aqueous solution of lithium fluoride (trials b).sctn. to the dilution of each one in every cup of every plate.

[1] = + LiF 1 mg/l, strain lic R βLac^+ OXA, read-out: MIC (average MIC value)
[2] = + LiF 1 mg/l, strain lic R βLac^+ PSE, read-out: MIC (average MIC value)
[3] = + LiF 1 mg/l, strain lic R βLac^+ TEM, read-out: MIC (average MIC value)
[4] = + LiF 1 mg/l, strain lic R βLac^+ cephalosporinase, read-out: MIC (average MIC value)
[5] = + LiF 1 mg/l, strain lic S βLac^- (first column), read-out: MIC (average MIC value)
[6] = + LiF 1 mg/l, strain lic S βLac^- (second column), read-out: MIC (average MIC value)
[7] = alone, strain lic R βLac^+ OXA, read-out: MIC (average MIC value)
[8] = alone, strain lic R βLac^+ PSE, read-out: MIC (average MIC value)
[9] = alone, strain lic R βLac^+ TEM, read-out: MIC (average MIC value)
[10] = alone, strain lic R βLac^+ cephalosporinase, read-out: MIC (average MIC value)
[11] = alone, strain lic S βLac^- (first column), read-out: MIC (average MIC value)
[12] = alone, strain lic S βLac^- (second column), read-out: MIC (average MIC value)

SMILES | MIC [1] [µg/mL] | MIC [2] [µg/mL] | MIC [3] [µg/mL] | MIC [4] [µg/mL] | MIC [5] [µg/mL] | MIC [6] [µg/mL] | MIC [7] [µg/mL] | MIC [8] [µg/mL] | MIC [9] [µg/mL] | MIC [10] [µg/mL] | MIC [11] [µg/mL] | MIC [12] [µg/mL] | other results
CC1(C)S[C@@H]2[C@H](NC(=O)[C@H](NC(=O)c3cnc4cccnc4c3O)c3ccccc3)C(=O)N2[C@H]1C(=O)O [APALCILLIN, apalcillin] | 32 | 32 | 8 | 16 | 2 | 8 | 32 | 64 | 16 | 16 | 4 | 16 | 
CO/N=C(\C(=O)N[C@@H]1C(=O)N2C(C(=O)O)=C(CSc3nc(=O)c(=O)[nH]n3C)CS[C@H]12)c1csc(N)n1 [CEFTRIAXONE, ceftriaxone] | 32 | 16 | 32 | 128 | 8 | 16 | 32 | 32 | 32 | 256 | 16 | 32 | 
NC(=O)c1cc[n+](CC2=C(C(=O)O)N3C(=O)[C@@H](NC(=O)[C@@H](c4ccccc4)S(=O)(=O)[O-])[C@H]3SC2)cc1 [CEFSULODIN, cefsulodin] | 16 | 16 | 32 | 64 | 4 | 16 | 16 | 32 | 32 | 64 | 4 | 16 | 
CC1(C)S[C@@H]2[C@H](NC(=O)[C@H](C(=O)O)c3ccsc3)C(=O)N2[C@H]1C(=O)O [ticarcillin] |  |  |  |  |  |  | 512 | 4100 | 1020 | 256 | 32 | 512 | number of strains resistant, of 958 strains tested: 235
CC(C)(O/N=C(\C(=O)N[C@@H]1C(=O)N2C(C(=O)[O-])=C(C[n+]3ccccc3)CS[C@H]12)c1csc(N)n1)C(=O)O [CAFTAZIDIME, ceftazidime] |  |  |  |  |  |  |  |  |  |  |  |  | MIC (read-out: MIC (average MIC value), + LiF 1 mg/l, strain lic R βLac^+ OXA): 4 µg/mL; MIC (read-out: MIC (average MIC value), + LiF 1 mg/l, strain lic R βLac^+ PSE): 2 µg/mL; MIC (read-out: MIC (average MIC value), + LiF 1 mg/l, strain lic R βLac^+ TEM): 4 µg/mL; MIC (read-out: MIC (average MIC value), + LiF 1 mg/l, strain lic R βLac^+ cephalosporinase): 32 µg/mL; MIC (read-out: MIC (average MIC value), + LiF 1 mg/l, strain lic S βLac^- (first column)): 2 µg/mL; MIC (read-out: MIC (average MIC value), + LiF 1 mg/l, strain lic S βLac^- (second column)): 4 µg/mL; MIC (read-out: MIC (average MIC value), alone, strain lic R βLac^+ OXA): 4 µg/mL; MIC (read-out: MIC (average MIC value), alone, strain lic R βLac^+ PSE): 2 µg/mL; MIC (read-out: MIC (average MIC value), alone, strain lic R βLac^+ TEM): 4 µg/mL; MIC (read-out: MIC (average MIC value), alone, strain lic R βLac^+ cephalosporinase): 32 µg/mL; MIC (read-out: MIC (average MIC value), alone, strain lic S βLac^- (first column)): 4 µg/mL; MIC (read-out: MIC (average MIC value), alone, strain lic S βLac^- (second column)): 4 µg/mL
CC1(C)S[C@@H]2[C@H](NC(=O)[C@H](NC(=O)N3CCNC3=O)c3ccccc3)C(=O)N2[C@H]1C(=O)O [AZLOCILLIN, azlocillin] | 64 | 64 | 64 | 128 | 4 | 32 | 64 | 64 | 64 | 128 | 8 | 32 | 
CCN1CCN(C(=O)N[C@@H](C(=O)N[C@@H]2C(=O)N3[C@@H]2SC(C)(C)[C@@H]3C(=O)O)c2ccccc2)C(=O)C1=O [PIPERACILLIN, piperacillin] | 64 | 64 | 64 | 128 | 8 | 8 | 64 | 128 | 64 | 128 | 8 | 16 | 
